Earlier results in publication PMC7933701 (Biochemistry and Biophysics Reports, 2021).

Tested on: PSA
Settings: peptide carrier of doxorubicin prodrug

## Mu-His-Ser-Ser-Lys-Leu-Gln-Leu
  hydrolysis by PSA (in words): precisely hydrolysable by PSA
